Data set [1] is described as follows: Metabolic stability in dog liver microsomes. The data set is classed as in vitro ADME. Conditions: male, beagle, pH 7.4, 1 mg/mL, read-out: Microsomal Stability (% Remaining at 30 min). As for the experimental part:
All measurements were done in duplicate. Pooled mixed gender human donor microsomes, male beagle dog microsomes and male cynomolgus monkey were obtained from BioIVT (Baltimore, MD). […] A mixture containing 50 mM potassium phosphate buffer pH 7.4 and 1 mg/mL liver microsomes was pre-warmed for 10 min at 37°C in a shaking water bath, followed by the addition of test compound. Final DMSO concentration in the reaction mix was 0.1%. […] The final volume of the reaction mixture was 800 μL, containing 1 mg/mL liver microsomes, and 1 μM test compound. Aliquots (100 μL) of reaction mixtures were removed from the incubation plate at pre-defined timepoints and mixed with 150 μL of ice-cold acetonitrile, incubated on ice for 15 min, and samples were centrifuged (3,600 rpm, 10 min, 4°C) to precipitate protein. The supernatants were diluted 1:1 (v/v) with water containing the internal standard and subjected to the LC/MS analysis.

In another data set the test system is PXR. Also on record: method as in PMID 26181715. Particulars: cited from earlier work.
The subject of another data set is plasma RBP4. Kind of data set: Plasma RBP4 lowering (ELISA) in cynomolgus monkey. The data set is classed as in vivo. The method, then:
Pharmacokinetic studies were conducted in male beagle dogs and male cynomolgus monkeys at SRI International, Menlo Park, CA. General procedures for animal care and housing were in accordance with the National Research Council (NRC) Guide for the Care and Use of Laboratory Animals (1996) and the Animal Welfare Standards incorporated in 9 CFR Part 3, 1991 and complied with guidelines set forth by the ARVO Animal Statement for the Use of Animals in Ophthalmic and Vision Research. During the course of the PK experiments, cynomolgus monkeys were individually housed in stainless steel primary enclosures in an AAALAC-accredited facility. Animals were fed a commercial monkey chow, and supplemental food was provided (fresh fruits, vegetables, seeds, and nuts). Reverse osmosis-purified drinking water was available at all times. Cynomolgus monkeys were maintained on a 12:12 hour light:dark cycle at the 64–84°F temperature and 30–70% humidity. Monkeys had access to enrichment opportunities (grooming devices, foraging devices, activity panels and mirrors) and were provided auditory stimuli and human interaction enrichment throughout the study. Blood samples were collected by venipuncture of a peripheral vein. Animals were acclimated to the squeeze back mechanism in their home cage by repeated, short periods of restraint during general husbandry procedures for at least 2 weeks prior to dosing. Animal were not removed from their cages for collection, and no anesthesia/analgesic agents were used for blood collection. […] For PK experiments, beagle dogs were individually housed in enclosed run (≥ 4 ft x 6 ft). Dogs were exposed to their daily ration of food, Harlan Teklad 2025C Certified Global 25% Protein Dog Diet. Water was provided from the public water supply (municipal tap water) ad libitum. Dogs were maintained on a 12:12 hour light:dark cycle at the 72–73°F temperature and 40–71% humidity. Every effort was made to minimize, if not eliminate, pain and suffering in all animals in this study. No restraining devices were used in blood collecting procedures. Dogs were gentle hand-held to restrain by trained technicians with the dogs foreleg extended for sample collection of blood from cephalic vein. Animals were awake during blood sample collection with no anesthesia/analgesic agents used, and positive reinforcement by the technician was provided following collection. […] All dogs were released back to the colony after the study was completed. Male beagle dogs and male cynomolgus monkey received a single i.v. dose of a test compound at 0.5 mg kg^−1 (dog) and 1 mg kg^−1 (monkey) or a single p.o. dose of a test compound of at 2 mg kg^−1 (dog) and 5 mg kg^−1 (monkey). The number of animals that was used in PK experiments is 3 per study group. Intravenous administration vehicle was 3% DMA/45% PEG300/12% ethanol/40% sterile water; p.o. vehicle was 2% Tween 80 in 0.9% saline. Blood was collected from dogs and monkeys at pre-dose and at 5, 15 and 30 min, and 1, 2, 4, 6, 8, 12, 24, 36 and 48 h post-dose in the i.v. arms and at 15 and 30 min, and 1, 2, 4, 6, 8, 12, 24, 36 and 48 h post-dose in the p.o. arm. […] Following protein extraction with acetonitrile, compound concentrations in plasma were measured by LC-MS/MS. The plasma drug level data were analyzed using WinNonlin software package; Model 201 (for i.v. bolus administration);was used for the analysis of i.v. data, and Model 200 (for extravascular administration) was used for the analysis of the p.o. data. […]

`Cc1cc(C(=O)O)nc(N2C[C@H]3C[C@@H](c4ccccc4C(F)(F)F)C[C@H]3C2)n1` [BPN-14136]: the share remaining at 0.5 h, 1 μM in data set [1] came out at 93%. In the data set on PXR, the PXR activation result was “no PXR activation”. In addition, the “plasma RBP4 reduction” value in the data set with plasma RBP4 (single 1 mg kg^−1 i.v. dose) is listed as 84%. The RBP4 reduction in the data set on plasma RBP4 (single 5 mg kg^−1 oral dose, 24 h) is on record as 97%; with plasma RBP4 (single 5 mg kg^−1 oral dose, 36 h), 94%; in the data set on plasma RBP4 (single 5 mg kg^−1 oral dose, 48 h) it was 91%. The “maximum decrease in plasma RBP4” value with plasma RBP4 (single 5 mg kg^−1 oral dose, at 12 hours after dosing) was found to be 99%.
